US7563903B2, “Acylaminothiazole derivatives, their preparation and their therapeutic use” (Sanofi-Aventis, priority 2003, dated 2009)
Values joined by “and” are separate entries in the source; they are usually repeats but may differ in a detail not shown here. Identical values can stand only once.

| melting point | Compound |
| --- | --- |
| 67.4 °C and 67.5 °C | CCC[C@H](NC(=O)[C@H](O)C(CC)CC)C(=O)Nc1ncc(-c2ccccc2COc2ccccc2)s1 (racemic) [Compound No. 42, (2R)-3-ethyl-2-hydroxy-N-{(1S)-1-[({5-[2-(phenoxymethyl)phenyl]-1,3-thiazol-2-yl}amino)carbonyl]butyl}pentanamide] |
| 85 °C | CCC[C@H](NC(=O)C(O)CC(C)C)C(=O)Nc1ncc(-c2ccccc2COC2CCCCC2)s1 (stereo partly drawn) [Compound No. 4, N-((1S)-1-{[(5-{2-[(cyclohexyloxy)methyl]phenyl}-1,3-thiazol-2-yl)amino]carbonyl}butyl)-2-hydroxy-4-methylpentanamide] |
| 84 °C | CCC[C@H](NC(=O)[C@@H](O)C(C)(C)C)C(=O)Nc1ncc(-c2ccccc2COc2ccccc2)s1 [Compound No. 9, (2S)-2-{[(2S)-2-hydroxy-3,3-dimethylbutanoyl]amino}-N-{5-[2-(phenoxymethyl)phenyl]-1,3-thiazol-2-yl}pentanamide] |
| 122.5 °C | CCC[C@H](NC(=O)[C@@H](O)C(CC)CC)C(=O)Nc1ncc(-c2ccccc2COc2ccccc2)s1 [Compound No. 43, (2S)-3-ethyl-2-hydroxy-N-{(1S)-1-[({5-[2-(phenoxymethyl)phenyl]-1,3-thiazol-2-yl}amino)carbonyl]butyl}pentanamide] |
| 112.7 °C | CCC[C@H](NC(=O)[C@@H](O)C(C)(C)C)C(=O)Nc1ncc(-c2ccccc2COc2ccncc2)s1 [Compound No. 70, (2S)-2-{[(2S)-2-hydroxy-3,3-dimethylbutanoyl]amino}-N-(5-{2-[(4-pyridinyloxy)methyl]phenyl}-1,3-thiazol-2-yl)pentanamide] |
| 63 °C | CCC[C@H](NC(=O)[C@@H](O)C(C)(C)C)C(=O)Nc1ncc(-c2ccccc2COC(C)C)s1 [compound 11, (2S)-2-{[(2S)-2-hydroxy-3,3-dimethylbutanoyl]amino}-N-{5-[2-(isopropoxymethyl)phenyl]-1,3-thiazol-2-yl}pentanamide] |
| 77 °C | CCC[C@H](NC(=O)CC(C)(C)C)C(=O)Nc1ncc(-c2ccccc2COC(C)C)s1 [compound 13, (2S)-2-[(3,3-dimethylbutanoyl)amino]-N-{5-[2-(isopropoxymethyl)phenyl]-1,3-thiazol-2-yl}pentanamide] |
| 112 °C | CCC[C@H](NC(=O)C(=O)C(C)CC)C(=O)Nc1ncc(-c2ccccc2COC(C)C)s1 (stereo partly drawn) [compound 14, N-{(1S)-1-[({5-[2-(isopropoxymethyl)phenyl]-1,3-thiazol-2-yl}amino)carbonyl]butyl}-3-methyl-2-oxopentanamide] |
| 148 °C | CCC[C@H](NC(=O)[C@@H](O)C(C)(C)C)C(=O)Nc1ncc(-c2ccccc2COCC)s1 [compound 15, (2S)—N-{5-[2-(ethoxymethyl)phenyl]-1,3-thiazol-2-yl}-2-{[(2S)-2-hydroxy-3,3-dimethylbutanoyl]amino}pentanamide] |
| 114 °C | CCC[C@H](NC(=O)[C@@H](O)C(C)(C)C)C(=O)Nc1ncc(-c2ccccc2COc2cccc(OC(F)(F)F)c2)s1 [compound 17, (2S)-2-{[(2S)-2-hydroxy-3,3-dimethylbutanoyl]amino}-N-[5-(2-{[3-(trifluoromethoxy)phenoxy]methyl}phenyl)-1,3-thiazol-2-yl]pentanamide] |
| 117 °C | CCC[C@H](NC(=O)[C@@H](O)C(C)(C)C)C(=O)Nc1ncc(-c2ccc(OC)cc2COc2ccccc2)s1 [compound 18, (2S)-2-{[(2S)-2-hydroxy-3,3-dimethylbutanoyl]amino}-N-{5-[4-methoxy-2-(phenoxymethyl)phenyl]-1,3-thiazol-2-yl}pentanamide] |
| 92 °C | CCC[C@H](NC(=O)[C@@H](O)C(C)(C)C)C(=O)Nc1ncc(-c2ccccc2COc2ccccc2F)s1 [compound 19, (2S)—N-(5-{2-[(2-fluorophenoxy)methyl]phenyl}-1,3-thiazol-2-yl)-2-{[(2S)-2-hydroxy-3,3-dimethylbutanoyl]amino}pentanamide] |
| 107 °C | CCC[C@H](NC(=O)[C@@H](O)C(C)(C)C)C(=O)Nc1ncc(-c2ccccc2COc2ccccc2CC)s1 [compound 20, (2S)—N-(5-{2-[(2-ethylphenoxy)methyl]phenyl}-1,3-thiazol-2-yl)-2-{[(2S)-2-hydroxy-3,3-dimethylbutanoyl]amino}pentanamide] |
| 99 °C | CCC[C@H](NC(=O)[C@@H](O)C(C)(C)C)C(=O)Nc1ncc(-c2ccccc2COc2cccc(OC)c2OC)s1 [compound 23, (2S)—N-(5-{2-[(2,3-dimethoxyphenoxy)methyl]-phenyl}-1,3-thiazol-2-yl)-2-{[(2S)-2-hydroxy-3,3-dimethylbutanoyl]amino}pentanamide] |
| 66 °C | CCC[C@H](NC(=O)[C@@H](O)C(C)(C)C)C(=O)Nc1ncc(-c2ccccc2COc2ccccc2OC(F)(F)F)s1 [compound 24, (2S)-2-{[(2S)-2-hydroxy-3,3-dimethylbutanoyl]amino}-N-[5-(2-{[2-(trifluoromethoxy)phenoxy]methyl}phenyl)-1,3-thiazol-2-yl]pentanamide] |
| 66.5 °C | CCC[C@H](NC(=O)[C@@H](O)C(C)(C)C)C(=O)Nc1ncc(-c2ccccc2COc2cc(OC)cc(OC)c2)s1 [compound 25, (2S)—N-(5-{2-[(3,5-dimethoxyphenoxy)methyl]-phenyl}-1,3-thiazol-2-yl)-2-{[(2S)-2-hydroxy-3,3-dimethylbutanoyl]amino}pentanamide] |
| 88 °C | CCC[C@H](NC(=O)[C@@H](O)C(C)(C)C)C(=O)Nc1ncc(-c2ccccc2COc2cccc(C)c2C)s1 [compound 26, (2S)—N-(5-{2-[(2,3-dimethylphenoxy)methyl]phenyl}-1,3-thiazol-2-yl)-2-{[(2S)-2-hydroxy-3,3-dimethylbutanoyl]amino}pentanamide] |
| 89 °C | CCC[C@H](NC(=O)[C@@H](O)C(C)(C)C)C(=O)Nc1ncc(-c2ccccc2COc2ccc(C)c(C)c2)s1 [compound 27, (2S)—N-(5-{2-[(3,4-dimethylphenoxy)methyl]phenyl}-1,3-thiazol-2-yl)-2-{[(2S)-2-hydroxy-3,3-dimethylbutanoyl]amino}pentanamide] |
| 87 °C | CCC[C@H](NC(=O)[C@@H](O)C(C)(C)C)C(=O)Nc1ncc(-c2ccccc2COc2c(C)cccc2C)s1 [compound 28, (2S)—N-(5-{2-[(2,6-dimethylphenoxy)methyl]phenyl}-1,3-thiazol-2-yl)-2-{[(2S)-2-hydroxy-3,3-dimethylbutanoyl]amino}pentanamide] |
| 169 °C | CCC[C@H](NC(=O)[C@@H](O)C(C)(C)C)C(=O)Nc1ncc(-c2ccccc2COc2cccc(Cl)c2)s1 [compound 29, (2S)—N-(5-{2-[(3-chlorophenoxy)methyl]phenyl}-1,3-thiazol-2-yl)-2-{[(2S)-2-hydroxy-3,3-dimethylbutanoyl]amino}pentanamide] |
| 81.5 °C | CCC[C@H](NC(=O)[C@@H](O)C(C)(C)C)C(=O)Nc1ncc(-c2ccccc2COc2ccc(OC)c(OC)c2)s1 [compound 30, (2S)—N-(5-{2-[(3,4-dimethoxyphenoxy)methyl]phenyl}-1,3-thiazol-2-yl)-2-{[(2S)-2-hydroxy-3,3-dimethylbutanoyl]amino}pentanamide] |
| 69.5 °C | CCC[C@H](NC(=O)[C@@H](O)C(C)(C)C)C(=O)Nc1ncc(-c2ccccc2COc2c(OC)cccc2OC)s1 [compound 31, (2S)—N-(5-{2-[(2,6-dimethoxyphenoxy)methyl]phenyl}-1,3-thiazol-2-yl)-2-{[(2S)-2-hydroxy-3,3-dimethylbutanoyl]amino}pentanamide] |
| 86 °C | CCC[C@H](NC(=O)[C@@H](O)C(C)(C)C)C(=O)Nc1ncc(-c2ccccc2COc2ccc(C)cc2C)s1 [compound 32, (2S)—N-(5-{2-[(2,4-dimethylphenoxy)methyl]phenyl}-1,3-thiazol-2-yl)-2-{[(2S)-2-hydroxy-3,3-dimethylbutanoyl]amino}pentanamide] |
| 87 °C | CCC[C@H](NC(=O)[C@@H](O)C(C)(C)C)C(=O)Nc1ncc(-c2ccccc2COc2cc(C)ccc2C)s1 [compound 33, (2S)—N-(5-{2-[(2,5-dimethylphenoxy)methyl]phenyl}-1,3-thiazol-2-yl)-2{[(2S)-2-hydroxy-3,3-dimethylbutanoyl]amino}pentanamide] |
| 99 °C | CCC[C@H](NC(=O)[C@@H](O)C(C)(C)C)C(=O)Nc1nc(C)c(-c2ccccc2COc2ccccc2)s1 [compound 34, (2S)-2-{[(2S)-2-hydroxy-3,3-dimethylbutanoyl]amino}-N-{4-methyl-5-[2-(phenoxymethyl)phenyl]-1,3-thiazol-2-yl}pentanamide] |
| 78.5 °C | CCC[C@@H](NC(=O)[C@@H](O)C(C)(C)C)C(=O)Nc1ncc(-c2ccccc2COc2ccccc2)s1 [compound 35, (2R)-2-{[(2S)-2-hydroxy-3,3-dimethylbutanoyl]amino}-N-{5-[2-(phenoxymethyl)phenyl]-1,3-thiazol-2-yl}pentanamide] |
| 96.5 °C | CCC[C@H](NC(=O)[C@@H](O)C(C)(C)C)C(=O)Nc1ncc(-c2ccccc2COc2ccccc2C)s1 [compound 36, (2S)-2-{[(2S)-2-hydroxy-3,3-dimethylbutanoyl]amino}-N-(5-{2-[(2-methylphenoxy)methyl]phenyl}-1,3-thiazol-2-yl}pentanamide] |
| 141 °C | CCC[C@H](NC(=O)[C@@H](O)C(C)C)C(=O)Nc1ncc(-c2ccccc2COc2ccccc2)s1 [compound 37, (2S)-2-{[(2S)-2-hydroxy-3-methylbutanoyl]amino}-N-{5-[2-(phenoxymethyl)phenyl]-1,3-thiazol-2-yl}pentanamide] |
| 85 °C | CCC[C@H](NC(=O)C(O)C(C)(C)C)C(=O)Nc1ncc(-c2ccccc2COc2ccccc2OC)s1 (stereo partly drawn) [compound 38, (2S)-2-[(2-hydroxy-3,3-dimethylbutanoyl)amino]-N-(5-{2-[(2-methoxyphenoxy)methyl]phenyl}-1,3-thiazol-2-yl}pentanamide] |
| 88 °C | CCC[C@H](NC(=O)C(O)C(C)(C)C)C(=O)Nc1ncc(-c2ccccc2COc2ccccc2OCC)s1 (stereo partly drawn) [compound 39, (2S)—N-(5-{2-[(2-ethoxyphenoxy)methyl]phenyl}-1,3-thiazol-2-yl)-2-[(2-hydroxy-3,3-dimethylbutanoyl)amino]pentanamide] |
